Literature values as cited in patent US5093338A, “Lipophilic macrolide useful as an immunosuppressant” (Merck & Co., Inc., priority 1991, dated 1992).

Experiments:
[1] = system: allergic encephalomyelitis; conditions: rats
[2] = system: heterotopic heart allografts
[3] = rats given heterotopic heart allografts
[4] = system: adjuvant-induced arthritis; conditions: rats
antibody production = conditions: rats
transplantation = conditions: combination with Cyclosporin A; heart, kidney, bowel, pancreas or other transplantation

Question: With CO[C@H]1C[C@@H]2CC[C@@H](C)[C@@](O)(O2)C(=O)C(=O)N2CCCC[C@H]2C(=O)O[C@H]([C@H](C)C[C@@H]2CC[C@@H](O)[C@H](OC)C2)CC(=O)[C@H](C)/C=C(\C)[C@@H](O)[C@@H](OC)C(=O)[C@H](C)C[C@H](C)/C=C/C=C/C=C/1C [rapamycin] as the molecule, how does the “inhibiting the response to allergic encephalomyelitis” value [1] read?
Answer: inhibiting the response to allergic encephalomyelitis

Question: What about the “immunosuppressive in rats given heterotopic heart allografts” value [2] of the same molecule?
Answer: immunosuppressive

Question: What about the “toxicity compared with that anticipated with FK-506” value [3] of the same molecule?
Answer: less toxicity was experienced than would be anticipated with FK-506

Question: And the “inhibiting the response to adjuvant-induced arthritis” value [4]?
Answer: inhibiting the response to allergic encephalomyelitis,adjuvant-induced arthritis

Question: What about the inhibiting antibody production (antibody production) of the same molecule?
Answer: inhibiting the response to allergic encephalomyelitis,adjuvant-induced arthritis and antibody production

Question: And the “amount of Cyclosporin A required for immunosuppressive effect in combination” value (transplantation)?
Answer: reducing the amount of Cyclosporin A required
